What was measured:
[1] = Inhibition of recombinant GGT1 (unknown origin) using GGPP as substrate preincubated for 5 mins followed by protein addition measured over 20 mins by fluorescence assay
[2] = as above; remark: listed apart in the source

Compound	IC50 [1]	IC50 [2]
CSCCc1c(-c2cccnc2)nn(-c2ccc(Cl)c(Cl)c2)c1OCCCNC(=O)[C@H](Cc1ccccc1)NC(C)=O	22.9 µM	
COc1ccc(C[C@H](NS(C)(=O)=O)C(=O)NCCCOc2c(CCSC)c(-c3cccnc3)nn2-c2ccc(Cl)c(Cl)c2)cc1		9.9 µM
COc1ccc(C[C@H](NC(=O)CCCOc2c(CCSC)c(-c3cccnc3)nn2-c2ccc(Cl)c(Cl)c2)C(N)=O)cc1		3.1 µM
CSCCc1c(-c2cccnc2)nn(-c2ccc(Cl)c(Cl)c2)c1OCCCNC(=O)[C@H](Cc1cccnc1)NC(C)=O		> 50 µM
CSCCc1c(-c2cccnc2)nn(-c2ccc(Cl)c(Cl)c2)c1OCCCNC(=O)[C@H](Cc1ccccc1)NS(C)(=O)=O		31.9 µM
CSCCc1c(-c2cccnc2)nn(-c2ccc(Cl)c(Cl)c2)c1OCCCNC(=O)[C@H](Cc1ccc(F)cc1)NS(C)(=O)=O		19.7 µM
CSCCc1c(-c2cccnc2)nn(-c2ccc(Cl)c(Cl)c2)c1OCCCNC(=O)[C@H](Cc1cccnc1)NS(C)(=O)=O		> 50 µM
CSCCc1c(-c2cccnc2)nn(-c2ccc(Cl)c(Cl)c2)c1OCCCC(=O)N[C@@H](Cc1ccncc1)C(N)=O		7.8 µM
COc1ccc(C[C@H](NC(C)=O)C(=O)NCCCOc2c(CCSC)c(-c3cccnc3)nn2-c2ccc(Cl)c(Cl)c2)cc1		34.8 µM
CSCCc1c(-c2cccnc2)nn(-c2ccc(Cl)c(Cl)c2)c1OCCCC(=O)N[C@@H](Cc1ccc(F)cc1)C(N)=O		2.4 µM
CSCCc1c(-c2cccnc2)nn(-c2ccc(Cl)c(Cl)c2)c1OCCCC(=O)N[C@@H](Cc1cccnc1)C(N)=O		11.6 µM
CSCCc1c(-c2cccnc2)nn(-c2ccc(Cl)c(Cl)c2)c1OCCCC(=O)N[C@@H](Cc1ccccc1)C(N)=O [N-[(S)-1-carbamoyl-2-phenylethyl]-4-[2-(3,4-di-chlorophenyl)-4-(2-methylsulfanylethyl)-5-pyridin-3-yl-2-H-pyrazol-3-yloxy]butyramide]		3.3 µM

From BindingDB's records for doi:10.1016/j.ejmech.2016.09.002 (King Fahd University of Petroleum and Minerals, 2016)
